The values below come from US20250115569A1, “SULFONAMIDE COMPOUNDS FOR THE TREATMENT OF NEUROLOGICAL CONDITIONS” (LARIO THERAPEUTICS LIMITED, priority 2021, published 2025).

Cav2.3, sequence (Q15878 whole entry, looked up): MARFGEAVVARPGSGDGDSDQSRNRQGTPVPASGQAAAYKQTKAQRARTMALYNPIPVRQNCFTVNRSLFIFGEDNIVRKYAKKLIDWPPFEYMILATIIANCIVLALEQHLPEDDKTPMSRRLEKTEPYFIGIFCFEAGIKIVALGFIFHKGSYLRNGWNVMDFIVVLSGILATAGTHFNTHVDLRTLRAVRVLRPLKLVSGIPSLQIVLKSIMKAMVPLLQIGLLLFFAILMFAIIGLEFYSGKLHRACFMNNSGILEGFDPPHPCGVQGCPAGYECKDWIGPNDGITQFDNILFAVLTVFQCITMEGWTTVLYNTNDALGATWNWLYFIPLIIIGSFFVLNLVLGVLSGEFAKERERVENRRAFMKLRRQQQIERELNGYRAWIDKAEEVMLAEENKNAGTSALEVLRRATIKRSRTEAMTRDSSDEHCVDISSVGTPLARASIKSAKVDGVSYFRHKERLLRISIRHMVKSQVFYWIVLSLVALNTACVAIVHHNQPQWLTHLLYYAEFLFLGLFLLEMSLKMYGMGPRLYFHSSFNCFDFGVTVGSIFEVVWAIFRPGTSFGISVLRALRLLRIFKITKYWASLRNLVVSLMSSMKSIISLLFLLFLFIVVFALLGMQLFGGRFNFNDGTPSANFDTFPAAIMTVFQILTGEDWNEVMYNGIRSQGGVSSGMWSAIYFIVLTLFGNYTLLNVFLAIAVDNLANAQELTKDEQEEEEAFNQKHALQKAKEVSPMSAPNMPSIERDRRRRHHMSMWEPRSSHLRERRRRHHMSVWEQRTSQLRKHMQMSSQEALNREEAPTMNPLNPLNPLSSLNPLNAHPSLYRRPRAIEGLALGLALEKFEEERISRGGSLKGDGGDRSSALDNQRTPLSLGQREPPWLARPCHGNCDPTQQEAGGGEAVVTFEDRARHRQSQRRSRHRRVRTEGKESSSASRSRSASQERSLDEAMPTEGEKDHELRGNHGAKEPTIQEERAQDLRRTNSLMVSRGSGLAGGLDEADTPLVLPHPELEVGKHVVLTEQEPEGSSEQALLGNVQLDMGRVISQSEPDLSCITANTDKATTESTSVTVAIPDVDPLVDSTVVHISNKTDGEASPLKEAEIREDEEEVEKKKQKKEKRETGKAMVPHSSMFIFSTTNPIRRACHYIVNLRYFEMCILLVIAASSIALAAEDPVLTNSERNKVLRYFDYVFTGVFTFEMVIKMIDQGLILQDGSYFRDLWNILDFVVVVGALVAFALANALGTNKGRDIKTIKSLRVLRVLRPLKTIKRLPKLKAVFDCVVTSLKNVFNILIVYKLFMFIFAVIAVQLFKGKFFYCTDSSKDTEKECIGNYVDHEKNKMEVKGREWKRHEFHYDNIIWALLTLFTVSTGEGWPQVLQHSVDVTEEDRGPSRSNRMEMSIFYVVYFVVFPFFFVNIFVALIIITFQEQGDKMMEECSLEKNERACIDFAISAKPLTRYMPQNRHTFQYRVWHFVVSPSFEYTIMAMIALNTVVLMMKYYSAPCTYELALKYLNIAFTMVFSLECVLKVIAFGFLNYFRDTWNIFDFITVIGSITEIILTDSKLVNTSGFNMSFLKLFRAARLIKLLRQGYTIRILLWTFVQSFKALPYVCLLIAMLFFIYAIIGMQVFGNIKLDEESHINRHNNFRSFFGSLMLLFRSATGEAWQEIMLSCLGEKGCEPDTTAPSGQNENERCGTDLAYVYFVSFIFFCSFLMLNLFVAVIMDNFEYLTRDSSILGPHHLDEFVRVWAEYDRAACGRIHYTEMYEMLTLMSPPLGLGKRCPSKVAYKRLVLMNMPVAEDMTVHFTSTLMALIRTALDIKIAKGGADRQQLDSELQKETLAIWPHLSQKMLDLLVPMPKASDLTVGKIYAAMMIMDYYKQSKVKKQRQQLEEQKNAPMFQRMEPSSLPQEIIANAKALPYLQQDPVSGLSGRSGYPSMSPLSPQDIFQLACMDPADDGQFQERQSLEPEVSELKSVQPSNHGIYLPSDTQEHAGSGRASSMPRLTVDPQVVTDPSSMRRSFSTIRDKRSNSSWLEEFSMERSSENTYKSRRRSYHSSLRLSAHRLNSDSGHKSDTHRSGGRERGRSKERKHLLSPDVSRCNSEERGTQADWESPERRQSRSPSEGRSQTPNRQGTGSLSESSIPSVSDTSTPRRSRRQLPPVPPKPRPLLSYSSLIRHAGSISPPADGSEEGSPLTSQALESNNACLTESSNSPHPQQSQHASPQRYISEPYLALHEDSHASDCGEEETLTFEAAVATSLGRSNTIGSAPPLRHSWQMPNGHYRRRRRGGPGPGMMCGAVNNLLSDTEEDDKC

This assay has as its target Cav2.3 (Homo sapiens, UniProt Q15878). The experiment in a line: Human Cav2.3 channel calcium-influx assay. It is filed as cell-based. The note with it: Fluo8 fluorescence, HEK-293 T-Rex/Kir2.1/Cav2.3e cells, without pluronic acid, read-out: Cav2.3 (pIC50) (converted). Put shortly: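 HEK-293 T-Rex/Kir2.1 cells with doxycycline (0.2 μg/mL)-inducible Cav2.3e plus Cavβ4-α2δ1, loaded with Fluo8 NW in 0 mM K+ Tyrode's. Compounds (8 points, top 30 μM, half-log, 0.3% final DMSO, n=4) preincubated 3 min at RT, then depolarized with 20 mM KCl/2 mM CaCl2 (final); fluorescence read 130 s.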
Consider `CN([C@H](c1ccc(F)cc1)C(F)(F)F)S(=O)(=O)c1ccc(F)s1` (stereo in doubt) [Example 19, 5-fluoro-N-methyl-N-(2,2,2-trifluoro-1-(4-fluorophenyl)ethyl)thiophene-2-sulfonamide], for which the IC50 is 2400 nM.

In the case of `CN([C@H](c1ccc(F)cc1)C(F)(F)F)S(=O)(=O)c1cncc(F)c1` [Example 223, (R)-5-fluoro-N-methyl-N-(2,2,2-trifluoro-1-(4-fluorophenyl)ethyl)pyridine-3-sulfonamide], the IC50 is 145 nM.

Turning to `CN([C@@H](c1ccc(F)cc1)C(F)(F)F)S(=O)(=O)c1ccc(F)s1` (stereo in doubt) [Example 18, 5-fluoro-N-methyl-N-(2,2,2-trifluoro-1-(4-fluorophenyl)ethyl)thiophene-2-sulfonamide], the IC50 is 11700 nM.

`CCN([C@@H](c1ccc(OC(F)(F)F)cc1)C(F)(F)F)S(=O)(=O)c1cncc(C#N)c1` [Example 118, (S)-5-Cyano-N-ethyl-N-(2,2,2-trifluoro-1-(4-(trifluoromethoxy)phenyl)ethyl)pyridine-3-sulfonamide]: the IC50 was 5620 nM.

On to `CCN(C(c1ccc(F)cc1)C(F)(F)F)S(=O)(=O)c1cncc(C(C)=O)c1` (stereo not drawn) [Example 120, 5-acetyl-N-ethyl-N-(2,2,2-trifluoro-1-(4-fluorophenyl)ethyl)pyridine-3-sulfonamide], for which the IC50 is 132 nM.

In the case of `CCN([C@H](c1ccc(F)cc1)C(F)(F)F)S(=O)(=O)c1ccc2ncn(C)c2c1` [Example 164, (R)—N-ethyl-1-methyl-N-(2,2,2-trifluoro-1-(4-fluorophenyl)ethyl)-1H-benzo[d]imidazole-6-sulfonamide], the IC50 was 174 nM.

For `CCN(C(c1ccc(F)cc1)C(F)(F)F)S(=O)(=O)c1csc(C#N)n1` (stereo not drawn) [Example 50, 2-cyano-N-ethyl-N-(2,2,2-trifluoro-1-(4-fluorophenyl)ethyl)thiazole-4-sulfonamide], the IC50 is 240 nM.

For `CCN(C(c1ccc(F)cc1)C(F)(F)F)S(=O)(=O)c1csc(C(N)=O)n1` (stereo not drawn) [Example 49, 4-(N-ethyl-N-(2,2,2-trifluoro-1-(4-fluorophenyl)ethyl)sulfamoyl)thiazole-2-carboxamide], the IC50 is 339 nM.

In the case of `CCN(C(c1ccc(F)cc1)C(F)(F)F)S(=O)(=O)c1cncc(C2COC2)c1` (stereo not drawn) [Example 99, N-ethyl-5-(oxetan-3-yl)-N-(2,2,2-trifluoro-1-(4-fluorophenyl)ethyl)pyridine-3-sulfonamide], the IC50 is 275 nM.

For `COc1ccc([C@H](N(C)S(=O)(=O)C2CCOCC2)C(F)(F)F)cc1` [Example 128, (S)—N-methyl-N-(2,2,2-trifluoro-1-(4-methoxyphenyl)ethyl)tetrahydro-2H-pyran-4-sulfonamide], the IC50 was 14100 nM.

On to `CCN(C(c1ccc(F)cc1)C(F)(F)F)S(=O)(=O)c1ccc(C(=O)N(C)C)s1` (stereo not drawn) [Example 25, 5-(N-ethyl-N-(2,2,2-trifluoro-1-(4-fluorophenyl)ethyl)sulfamoyl)-N,N-dimethylthiophene-2-carboxamide], for which the IC50 is 282 nM.

Turning to `CN([C@H](c1ccc(F)cc1)C(F)(F)F)S(=O)(=O)c1cncc(C#N)c1` [Example 274, (R)-5-Cyano-N-methyl-N-(2,2,2-trifluoro-1-(4-fluorophenyl)ethyl)pyridine-3-sulfonamide], the IC50 was 100 nM.

As to `CN([C@H](c1ccc(OC(F)F)cc1)C(F)(F)F)S(=O)(=O)c1cncc(C#N)c1` [Example 240, (R)-5-cyano-N-(1-(4-(difluoromethoxy)phenyl)-2,2,2-trifluoroethyl)-N-methylpyridine-3-sulfonamide], the IC50 is 162 nM.

For `CCN([C@H](c1ccc(F)cc1)C(F)(F)F)S(=O)(=O)c1cnc2[nH]ccc2n1` [Example 140, (R)—N-ethyl-N-(2,2,2-trifluoro-1-(4-fluorophenyl)ethyl)-5H-pyrrolo[2,3-b]pyrazine-2-sulfonamide], the IC50 was 562 nM.

Take `CN([C@H](c1ccc(OC(F)(F)F)cc1)C(F)(F)F)S(=O)(=O)c1cncc(C#N)c1` [Example 241, (R)-5-cyano-N-methyl-N-(2,2,2-trifluoro-1-(4-(trifluoromethoxy)phenyl)ethyl)pyridine-3-sulfonamide]: the IC50 is 105 nM.

For `CCN([C@H](c1ccc(F)cc1)C(F)(F)F)S(=O)(=O)c1ccc(=O)n(C)c1` [Example 101, (R)—N-ethyl-1-methyl-6-oxo-N-(2,2,2-trifluoro-1-(4-fluorophenyl)ethyl)-1,6-dihydropyridine-3-sulfonamide], the IC50 was 182 nM.

As to `CCN([C@H](c1ccc(F)cc1)C(F)(F)F)S(=O)(=O)c1ccn2nnnc2c1` [Example 158, (R)—N-ethyl-N-(2,2,2-trifluoro-1-(4-fluorophenyl)ethyl)tetrazolo[1,5-a]pyridine-7-sulfonamide], the IC50 was 275 nM.

As to `CCN([C@H](c1ccc(F)cc1)C(F)(F)F)S(=O)(=O)c1cc2ncccn2n1` [Example 148, (R)—N-ethyl-N-(2,2,2-trifluoro-1-(4-fluorophenyl)ethyl)pyrazolo[1,5-a]pyrimidine-2-sulfonamide], the IC50 is 692 nM.

For the molecule `CCN(C(c1ccc(F)cc1)C(F)(F)F)S(=O)(=O)c1ccc(C2CNC2)s1` (stereo not drawn) [Example 47, 5-(Azetidin-3-yl)-N-ethyl-N-(2,2,2-trifluoro-1-(4-fluorophenyl)ethyl)thiophene-2-sulfonamide], the IC50 was 501 nM.

For `CCN([C@H](c1ccc(F)cc1)C(F)(F)F)S(=O)(=O)c1cnc(C#N)s1` [Example 84], the IC50 was 871 nM.

As for `CCN([C@H](c1ccc(C(F)(F)F)c(C)c1)C(F)(F)F)S(=O)(=O)c1cncc(F)c1` [Example 271, (R)—N-ethyl-5-fluoro-N-(2,2,2-trifluoro-1-(3-methyl-4-(trifluoromethyl)phenyl)ethyl)pyridine-3-sulfonamide], the IC50 was 162 nM.

`CCN([C@H](c1ccc(F)cc1)C(F)(F)F)S(=O)(=O)c1cnc2[nH]nnc2c1` [Example 166, (R)—N-ethyl-N-(2,2,2-trifluoro-1-(4-fluorophenyl)ethyl)-1H-[1,2,3]triazolo[4,5-b]pyridine-6-sulfonamide]: the IC50 is 794 nM.

In the case of `CN([C@H](c1ccc(Cl)cc1)C(F)(F)F)S(=O)(=O)c1cn2ccnc2cn1` [Example 199, (R)—N-(1-(4-chlorophenyl)-2,2,2-trifluoroethyl)-N-methylimidazo[1,2-a]pyrazine-6-sulfonamide], the IC50 is 1150 nM.

On to `CCN(C(c1ccc(F)cc1)C(F)(F)F)S(=O)(=O)c1ccc2c(c1)S(=O)(=O)CC2` (stereo not drawn) [Example 28, N-ethyl-N-(2,2,2-trifluoro-1-(4-fluorophenyl)ethyl)-2,3-dihydrobenzo[b]thiophene-6-sulfonamide 1,1-dioxide], for which the IC50 was 355 nM.

As for `CCN([C@H](c1ccc(F)cc1)C(F)(F)F)S(=O)(=O)c1cn2ccnc2cn1` [Example 198, (R)—N-ethyl-N-(2,2,2-trifluoro-1-(4-fluorophenyl)ethyl)imidazo[1,2-a]pyrazine-6-sulfonamide], the IC50 was 324 nM.

`CN([C@H](c1ccc(Cl)cc1)C(F)(F)F)S(=O)(=O)c1cnc2ccccn12` [Example 187, (R)—N-(1-(4-chlorophenyl)-2,2,2-trifluoroethyl)-N-methylimidazo[1,2-a]pyridine-3-sulfonamide]: the IC50 was 19.1 nM.

For `CCN([C@H](c1ccc(OC)cc1)C(F)(F)F)S(=O)(=O)C1CCOCC1` [Example 127, (R)—N-ethyl-N-(2,2,2-trifluoro-1-(4-methoxyphenyl)ethyl)tetrahydro-2H-pyran-4-sulfonamide], the IC50 is 309 nM.

On to `CCN([C@H](c1ccc(F)cc1)C(F)(F)F)S(=O)(=O)c1ccc2nc(C)cn2n1` [Example 180, (R)—N-ethyl-2-methyl-N-(2,2,2-trifluoro-1-(4-fluorophenyl)ethyl)imidazo[1,2-b]pyridazine-6-sulfonamide], for which the IC50 was 447 nM.

Turning to `CN(C(c1ccc(F)cc1)C(F)(F)F)S(=O)(=O)c1ccc(F)s1` (stereo not drawn) [Example 17, 5-fluoro-N-methyl-N-(2,2,2-trifluoro-1-(4-fluorophenyl)ethyl)thiophene-2-sulfonamide], the IC50 was 3630 nM.

In the case of `CCN(C(c1ccc(F)cc1)C(F)(F)F)S(=O)(=O)c1csc(C(=O)OC)n1` (stereo not drawn) [Example 48, methyl 4-(N-ethyl-N-(2,2,2-trifluoro-1-(4-fluorophenyl)ethyl)sulfamoyl)thiazole-2-carboxylate], the IC50 is 2000 nM.
